Assay results: patent publication US9493455B2, “Azaindole derivatives as inhibitors of protein kinases” (ORIBASE PHARMA, priority 2012, dated 2016)

What was measured:
Assay in all cases: In vitro kinase assay (Z′-LYTE)
Format in all cases: biochemical
ERK2 = biological target: T1, ERK2 (Homo sapiens, UniProt P28482); details: read-out: percent inhibition of the kinase compared to the control
T1 construct: purchased Invitrogen
In short: (§1)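 Inhibition measured at a single dose, 100 nM, or 10 μM for ABL T315I. Z′-LYTE format with ATP at apparent Km; emission ratio of donor to acceptor quantifies phosphorylation.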

FGFR1 = biological target: T2, FGFR1 (Homo sapiens, UniProt P11362); details: read-out: % of inhibition of the kinase compared to the control
T2 construct: purchased Invitrogen
In short: as §1

PDGFRB = biological target: T3, PDGFRB (Homo sapiens, UniProt P09619); details: read-out: % of inhibition of the kinase compared to the control
T3 construct: purchased Invitrogen
In short: as §1

FGR = biological target: T4, FGR (Homo sapiens, UniProt P09769); details: read-out: percent inhibition of the kinase compared to the control
T4 construct: purchased Invitrogen
In short: as §1

FMS = biological target: T5, FMS (Homo sapiens, UniProt P07333); details: read-out: percent inhibition of the kinase compared to the control
T5 construct: purchased Invitrogen
In short: as §1

BMX = biological target: T6, BMX (Homo sapiens, UniProt P51813); details: read-out: percent inhibition of the kinase compared to the control
T6 construct: purchased Invitrogen
In short: as §1

RET = biological target: T7, RET (Homo sapiens, UniProt P07949); details: read-out: percent inhibition of the kinase compared to the control
T7 construct: purchased Invitrogen
In short: as §1

LCK = biological target: T8, LCK (Homo sapiens, UniProt P06239); details: read-out: percent inhibition of the kinase compared to the control
T8 construct: purchased Invitrogen
In short: as §1

FES = biological target: T9, FES (Homo sapiens, UniProt P07332); details: read-out: percent inhibition of the kinase compared to the control
T9 construct: purchased Invitrogen
In short: as §1

VEGFR3 = biological target: T10, VEGFR3 (Homo sapiens, UniProt P35916); details: read-out: percent inhibition of the kinase compared to the control
T10 construct: purchased Invitrogen
In short: as §1

CSK = biological target: T11, CSK (Homo sapiens, UniProt P41240); details: read-out: percent inhibition of the kinase compared to the control
T11 construct: purchased Invitrogen
In short: as §1

T9 sequence (P07332 whole entry): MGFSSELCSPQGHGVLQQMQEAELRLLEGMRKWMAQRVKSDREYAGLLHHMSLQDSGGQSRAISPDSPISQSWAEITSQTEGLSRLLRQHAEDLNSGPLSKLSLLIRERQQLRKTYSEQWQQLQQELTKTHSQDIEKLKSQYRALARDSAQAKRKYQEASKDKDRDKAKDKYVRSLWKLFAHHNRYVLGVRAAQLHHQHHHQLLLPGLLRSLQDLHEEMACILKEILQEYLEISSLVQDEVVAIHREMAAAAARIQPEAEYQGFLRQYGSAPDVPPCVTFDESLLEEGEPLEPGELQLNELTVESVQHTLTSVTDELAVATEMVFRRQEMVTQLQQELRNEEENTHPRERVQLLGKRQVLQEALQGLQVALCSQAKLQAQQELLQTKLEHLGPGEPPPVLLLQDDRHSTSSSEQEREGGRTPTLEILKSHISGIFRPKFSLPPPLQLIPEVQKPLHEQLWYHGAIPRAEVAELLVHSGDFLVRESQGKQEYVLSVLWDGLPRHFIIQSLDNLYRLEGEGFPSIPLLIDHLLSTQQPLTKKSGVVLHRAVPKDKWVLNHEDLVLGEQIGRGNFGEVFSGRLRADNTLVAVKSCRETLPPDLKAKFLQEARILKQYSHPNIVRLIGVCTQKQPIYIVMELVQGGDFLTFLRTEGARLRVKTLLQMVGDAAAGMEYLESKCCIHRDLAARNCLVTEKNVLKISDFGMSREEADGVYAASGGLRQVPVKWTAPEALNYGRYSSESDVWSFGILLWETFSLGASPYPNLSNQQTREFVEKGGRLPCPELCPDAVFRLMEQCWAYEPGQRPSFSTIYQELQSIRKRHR
T10 sequence (P35916 25-1363): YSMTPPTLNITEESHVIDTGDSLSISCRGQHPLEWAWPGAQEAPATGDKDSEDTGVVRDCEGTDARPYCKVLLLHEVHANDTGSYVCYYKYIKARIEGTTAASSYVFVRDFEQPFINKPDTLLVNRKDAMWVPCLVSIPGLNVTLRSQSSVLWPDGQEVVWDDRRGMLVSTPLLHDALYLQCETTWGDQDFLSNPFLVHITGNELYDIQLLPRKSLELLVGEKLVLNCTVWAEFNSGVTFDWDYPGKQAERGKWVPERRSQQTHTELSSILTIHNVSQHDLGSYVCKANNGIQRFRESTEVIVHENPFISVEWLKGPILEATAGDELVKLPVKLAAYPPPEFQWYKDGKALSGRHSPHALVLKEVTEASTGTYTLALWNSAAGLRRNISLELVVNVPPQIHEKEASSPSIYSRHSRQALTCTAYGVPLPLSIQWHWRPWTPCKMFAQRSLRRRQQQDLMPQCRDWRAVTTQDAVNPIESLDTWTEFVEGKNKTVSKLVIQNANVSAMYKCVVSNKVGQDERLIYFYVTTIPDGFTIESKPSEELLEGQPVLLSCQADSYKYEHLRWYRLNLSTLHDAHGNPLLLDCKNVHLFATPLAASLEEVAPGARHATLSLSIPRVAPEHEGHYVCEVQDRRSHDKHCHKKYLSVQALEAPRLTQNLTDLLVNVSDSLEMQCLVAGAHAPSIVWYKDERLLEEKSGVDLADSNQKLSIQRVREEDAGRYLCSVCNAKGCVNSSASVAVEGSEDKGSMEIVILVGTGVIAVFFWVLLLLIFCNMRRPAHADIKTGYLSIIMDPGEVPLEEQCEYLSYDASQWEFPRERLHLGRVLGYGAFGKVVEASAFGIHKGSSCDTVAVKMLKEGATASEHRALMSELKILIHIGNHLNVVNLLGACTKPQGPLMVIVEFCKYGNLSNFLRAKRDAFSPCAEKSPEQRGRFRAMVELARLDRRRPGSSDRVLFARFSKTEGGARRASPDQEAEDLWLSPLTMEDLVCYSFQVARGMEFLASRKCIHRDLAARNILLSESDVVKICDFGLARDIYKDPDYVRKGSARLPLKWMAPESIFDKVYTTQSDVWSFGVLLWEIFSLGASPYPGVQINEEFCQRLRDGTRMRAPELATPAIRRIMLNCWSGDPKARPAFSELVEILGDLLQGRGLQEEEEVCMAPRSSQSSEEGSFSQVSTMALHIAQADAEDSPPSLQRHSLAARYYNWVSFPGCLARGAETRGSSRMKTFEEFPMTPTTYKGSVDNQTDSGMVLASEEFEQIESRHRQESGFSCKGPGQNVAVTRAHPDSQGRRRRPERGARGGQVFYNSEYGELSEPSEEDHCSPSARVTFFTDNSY
T6 sequence (P51813 whole entry): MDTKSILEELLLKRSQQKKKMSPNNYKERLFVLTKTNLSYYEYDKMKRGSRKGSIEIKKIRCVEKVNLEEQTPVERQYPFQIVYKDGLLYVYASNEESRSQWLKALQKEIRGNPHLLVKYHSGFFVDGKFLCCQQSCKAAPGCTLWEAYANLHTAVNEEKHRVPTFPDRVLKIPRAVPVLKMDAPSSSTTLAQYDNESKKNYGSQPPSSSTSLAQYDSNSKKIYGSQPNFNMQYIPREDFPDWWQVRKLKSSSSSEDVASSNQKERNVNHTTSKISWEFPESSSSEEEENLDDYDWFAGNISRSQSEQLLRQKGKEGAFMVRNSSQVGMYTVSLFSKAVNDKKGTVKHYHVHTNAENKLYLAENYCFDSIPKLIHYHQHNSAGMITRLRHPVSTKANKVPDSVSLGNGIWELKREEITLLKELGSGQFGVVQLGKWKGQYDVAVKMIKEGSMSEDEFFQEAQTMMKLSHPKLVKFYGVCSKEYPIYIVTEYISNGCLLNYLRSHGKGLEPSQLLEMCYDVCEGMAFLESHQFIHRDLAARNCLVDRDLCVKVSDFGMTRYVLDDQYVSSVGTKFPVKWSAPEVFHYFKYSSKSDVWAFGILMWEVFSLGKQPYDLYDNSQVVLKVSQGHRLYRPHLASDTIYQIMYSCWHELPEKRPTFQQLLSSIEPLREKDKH
T7 sequence (P07949 29-1114): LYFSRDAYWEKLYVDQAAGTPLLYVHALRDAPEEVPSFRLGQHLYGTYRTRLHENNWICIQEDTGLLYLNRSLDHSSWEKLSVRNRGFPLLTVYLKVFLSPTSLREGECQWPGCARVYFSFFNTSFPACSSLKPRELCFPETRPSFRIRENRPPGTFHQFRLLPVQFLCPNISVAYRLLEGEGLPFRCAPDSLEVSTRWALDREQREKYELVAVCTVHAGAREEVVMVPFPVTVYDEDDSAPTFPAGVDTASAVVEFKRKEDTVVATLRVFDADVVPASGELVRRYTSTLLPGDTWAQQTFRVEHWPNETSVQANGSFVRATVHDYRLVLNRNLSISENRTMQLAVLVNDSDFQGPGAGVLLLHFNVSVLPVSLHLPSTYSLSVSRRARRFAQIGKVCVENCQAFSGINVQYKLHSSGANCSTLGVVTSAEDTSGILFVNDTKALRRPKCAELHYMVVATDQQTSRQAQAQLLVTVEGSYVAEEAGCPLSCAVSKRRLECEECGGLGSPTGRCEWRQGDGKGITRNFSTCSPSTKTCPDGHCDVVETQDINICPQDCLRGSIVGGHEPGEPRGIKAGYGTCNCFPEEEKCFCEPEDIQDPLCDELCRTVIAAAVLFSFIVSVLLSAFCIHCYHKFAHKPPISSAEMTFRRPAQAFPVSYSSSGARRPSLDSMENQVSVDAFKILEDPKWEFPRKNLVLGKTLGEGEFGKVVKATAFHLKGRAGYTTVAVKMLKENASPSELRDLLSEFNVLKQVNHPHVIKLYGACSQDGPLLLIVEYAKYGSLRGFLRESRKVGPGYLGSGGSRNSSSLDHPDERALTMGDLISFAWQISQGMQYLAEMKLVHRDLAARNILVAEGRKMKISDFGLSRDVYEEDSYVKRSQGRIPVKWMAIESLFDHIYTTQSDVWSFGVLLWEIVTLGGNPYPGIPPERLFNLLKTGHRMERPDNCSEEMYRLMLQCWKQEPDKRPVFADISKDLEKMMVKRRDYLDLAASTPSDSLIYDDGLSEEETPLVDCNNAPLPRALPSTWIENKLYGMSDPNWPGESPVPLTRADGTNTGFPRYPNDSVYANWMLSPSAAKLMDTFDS
T2 sequence (P11362 22-822): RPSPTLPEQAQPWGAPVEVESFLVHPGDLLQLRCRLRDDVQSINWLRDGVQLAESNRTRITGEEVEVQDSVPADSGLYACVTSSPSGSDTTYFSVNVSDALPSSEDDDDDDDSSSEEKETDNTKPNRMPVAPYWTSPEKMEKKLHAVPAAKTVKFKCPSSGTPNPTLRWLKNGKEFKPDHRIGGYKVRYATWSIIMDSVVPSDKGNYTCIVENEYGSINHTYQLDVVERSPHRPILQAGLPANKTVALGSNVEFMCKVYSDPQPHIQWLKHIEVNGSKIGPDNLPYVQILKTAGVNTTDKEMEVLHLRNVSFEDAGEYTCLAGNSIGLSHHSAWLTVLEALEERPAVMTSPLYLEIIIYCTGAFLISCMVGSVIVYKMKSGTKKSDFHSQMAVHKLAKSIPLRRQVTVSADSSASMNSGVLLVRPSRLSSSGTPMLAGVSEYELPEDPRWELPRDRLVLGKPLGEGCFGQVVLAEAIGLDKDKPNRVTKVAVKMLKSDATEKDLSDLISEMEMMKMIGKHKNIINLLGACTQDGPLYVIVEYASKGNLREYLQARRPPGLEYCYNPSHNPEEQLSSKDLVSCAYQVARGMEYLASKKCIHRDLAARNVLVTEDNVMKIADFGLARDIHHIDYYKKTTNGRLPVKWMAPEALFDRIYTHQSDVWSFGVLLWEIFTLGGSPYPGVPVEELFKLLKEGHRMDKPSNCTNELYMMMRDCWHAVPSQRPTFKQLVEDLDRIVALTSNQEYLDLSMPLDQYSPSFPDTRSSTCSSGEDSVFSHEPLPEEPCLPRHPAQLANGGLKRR
T1 sequence (P28482 whole entry): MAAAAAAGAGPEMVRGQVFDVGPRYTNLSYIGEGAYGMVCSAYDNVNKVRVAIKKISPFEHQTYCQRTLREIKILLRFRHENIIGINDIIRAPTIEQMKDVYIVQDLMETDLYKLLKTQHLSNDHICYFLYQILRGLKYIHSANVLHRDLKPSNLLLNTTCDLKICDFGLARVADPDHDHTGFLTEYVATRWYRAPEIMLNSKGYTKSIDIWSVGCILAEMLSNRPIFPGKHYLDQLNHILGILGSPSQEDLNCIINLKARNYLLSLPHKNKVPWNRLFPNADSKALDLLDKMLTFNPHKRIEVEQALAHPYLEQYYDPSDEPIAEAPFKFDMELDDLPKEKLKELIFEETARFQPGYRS

- inhibition at 0.1 µM (ERK2): > 50%
- inhibition at 0.1 µM (FGFR1): ≥ 50%
- inhibition at 0.1 µM (PDGFRB): ≥ 50%
- inhibition at 0.1 µM (FGR): > 50%
- inhibition at 0.1 µM (FMS): > 50%
- inhibition at 0.1 µM (BMX): > 50%
- inhibition at 0.1 µM (RET): > 50%
- inhibition at 0.1 µM (LCK): > 50%
- inhibition at 0.1 µM (FES): > 50%
- inhibition at 0.1 µM (VEGFR3): > 50%
- inhibition at 0.1 µM (CSK): > 50%
SMILES: COC(=O)c1cc2cc(NCc3cc(NC(=O)c4ccc(CN5CCN(C)CC5)c(C(F)(F)F)c4)ccc3C)cnc2[nH]1 [OR0512]
